Reference: patent US9107411B2, “Indolecarboxamides and benzimidazolecarboxamides as insecticides and acaricides” (BAYER INTELLECTUAL PROPERTY GMBH, priority 2011, dated 2015)
Like-named read-outs stand apart in the source and are kept apart here.

Legend:
[1] = logP (HPLC-MS); assay type: physicochemical
[2] = system: Phaedon cochleariae; experiment: Phaedon test (PHAECO spray treatment); assay type: in vivo; conditions: Chinese cabbage leaf discs, after 7 days; for pest or weed control at 100 g/ha: Phaedon cochleariae, foliar, 168 h, read-out: efficacy in %
Procedure: Phaedon Test ([…] Spray Treatment) Solvent: 78.0 parts by weight of acetone • • 1.5 parts by weight of dimethylformamide Emulsifier: 0.5 part by weight of alkylaryl polyglycol ether To produce an appropriate active ingredient formulation, 1 part by weight of active ingredient is mixed with the stated amounts of solvent and emulsifier, and the concentrate is diluted with emulsifier-containing water to the desired concentration. Leaf discs of Chinese cabbage (Brassica pekinensis) are sprayed with an active ingredient formulation of the desired concentration and, after drying, populated with larvae of the mustard beetle (Phaedon cochleariae). After 7 days, the efficacy in % is determined. 100% means that all of the beetle larvae have been killed; 0% means that none of the beetle larvae have been killed.

[3] = system: Spodoptera frugiperda; experiment: Spodoptera frugiperda test (SPODFR spray treatment); assay type: in vivo; conditions: maize leaf discs, after 7 days
Procedure: Spodoptera frugiperda Test (SPODFR Spray Treatment) Solvent: 78.0 parts by weight of acetone • • 1.5 parts by weight of dimethylformamide To produce an appropriate active ingredient formulation, 1 part by weight of active ingredient is mixed with the stated amounts of solvent and emulsifier, and the concentrate is diluted with emulsifier-containing water to the desired concentration. Leaf discs of maize (Zea mays) are sprayed with an active ingredient formulation of the desired concentration and, after drying, populated with caterpillars of the armyworm (Spodoptera frugiperda). After 7 days, the efficacy in % is determined 100% means that all of the caterpillars have been killed; 0% means that none of the caterpillars have been killed.

[4] = system: Tetranychus urticae; experiment: Tetranychus test, OP-resistant (TETRUR spray treatment); assay type: in vivo; conditions: application rate 100 g/ha; bean leaf discs; after 6 days
Procedure: Tetranychus Test, OP-Resistant (TETRUR Spray Treatment)
Solvent: 78.0 parts by weight of acetone • • 1.5 parts by weight of dimethylformamide
Emulgator: 0.5 part by weight of alkylaryl polyglycol ether
To produce an appropriate active ingredient formulation, 1 part by weight of active ingredient is mixed with the stated amounts of solvent and emulsifier, and the concentrate is diluted with emulsifier-containing water to the desired concentration.
Discs of bean leaves (Phaseolus vulgaris) infested by all stages of the red spider mite (Tetranychus urticae) are sprayed with an active ingredient formulation of the desired concentration.
After 6 days, the efficacy in % is determined. 100% means that all of the spider mites have been killed; 0% means that none of the spider mites have been killed.

[5] = HPLC, reversed-phase column (C18), acidic range pH 2.7, acetonitrile (0.1% formic acid)/water gradient, 43° C., calibration with unbranched alkan-2-ones
[6] = HPLC, reversed-phase column (C18), acidic range pH 2.7, acetonitrile (0.1% formic acid)/water gradient, 43° C., calibration with unbranched alkan-2-ones, read-out: log p
[7] = HPLC, reversed-phase column (C18), 43° C., acidic range pH 2.7, EEC directive 79/831 Annex V.A8, two values = both regioisomers (G = N)

Row | log p [1, 5] | log p [1, 7] | Compound | efficacy in % ([2]; application rate 100 g/ha) [%] | efficacy in % ([3]; application rate 100 g/ha) [%] | further results
1 | 3.4 | – | Cn1c(C(=O)NC(c2cccc(C(F)(F)F)c2)C(F)(F)F)nc2cc(C(=O)NC3CC3)c(Cl)cc21 (stereo not shown) [Compound 1] | – | – | efficacy in % ([2]; application rate 500 g/ha): 100%; efficacy in % ([3]; application rate 500 g/ha): 100%
2 | 3.91 | – | CCNC(=O)c1cc2cc(C(=O)NC(c3ccc(F)c(C(F)(F)F)c3)C(F)(F)F)n(CC)c2cc1Cl (stereo not shown) [Compound 17] | 100 | 100 | –
3 | 3.64 | – | CCn1c(C(=O)NC(c2cccc(C(F)(F)F)c2)C(F)(F)F)cc2cc(C(=O)NCC#N)c(Cl)cc21 (stereo not shown) [Compound 21] | 100 | – | –
4 | 4.37 | – | CCn1c(C(=O)NC(c2cccc(C(F)(F)F)c2)C(F)(F)F)cc2cc(CNC(=O)C3CC3)c(C(F)(F)F)cc21 (stereo not shown) [Compound 23] | 100 | – | –
5 | 4.19 | – | CCn1c(C(=O)NC(c2cccc(C(F)(F)F)c2)C(F)(F)F)cc2cc(CNC(=O)C3CC3)c(Cl)cc21 (stereo not shown) [Compound 24] | 100 | 100 | –
6 | 4.06 | – | CCC(=O)NCc1cc2cc(C(=O)NC(c3cccc(C(F)(F)F)c3)C(F)(F)F)n(CC)c2cc1Cl (stereo not shown) [Compound 25] | 100 | 100 | –
7 | – | – | CCn1c(C(=O)NC(c2cccc(C(F)(F)F)c2)C(F)(F)F)cc2cc(CNC(C)=O)c(Cl)cc21 (stereo not shown) [Compound 26, 5-(acetamidomethyl)-6-chloro-1-ethyl-N-{2,2,2-trifluoro-1-[3-(trifluoromethyl)phenyl]ethyl}-1H-indole-2-carboxamide] | – | – | chromatographic logP [1, 6]: 3.77; chromatographic logP ([1]; HPLC-MS): 3.77; pest or weed control at 100 g/ha ([2]; application rate 100 g/ha): 100%
8 | 4.45 | – | CCn1c(C(=O)NC(c2cccc(C(F)(F)F)c2)C(F)(F)F)cc2cc(C(=O)NC3(C4CC4)CC3)c(Cl)cc21 (stereo not shown) [Compound 29] | 100 | 83 | –
9 | 4.45 | – | CCn1c(C(=O)NC(c2cccc(C(F)(F)F)c2)C(F)(F)F)cc2cc(C(=O)NC3(CC)CC3)c(Cl)cc21 (stereo not shown) [Compound 30] | 100 | 83 | –
10 | 4.19 | – | CCOC1(NC(=O)c2cc3cc(C(=O)NC(c4cccc(C(F)(F)F)c4)C(F)(F)F)n(CC)c3cc2Cl)CC1 (stereo not shown) [Compound 31] | 100 | 100 | –
11 | 4.20 | – | C#CC1(NC(=O)c2cc3cc(C(=O)NC(c4cccc(C(F)(F)F)c4)C(F)(F)F)n(CC)c3cc2Cl)CCC1 (stereo not shown) [Compound 33] | 100 | – | –
12 | 3.99 | – | CCOC(=O)C1(NC(=O)c2cc3cc(C(=O)NC(c4cccc(C(F)(F)F)c4)C(F)(F)F)n(CC)c3cc2Cl)CC1 (stereo not shown) [Compound 34] | 100 | 83 | –
13 | 3.55 | – | Cn1c(C(=O)NC(c2cccc(C(F)(F)F)c2)C(F)(F)F)cc2cc(C(=O)NC3(C#N)CC3)c(Cl)cc21 (stereo not shown) [Compound 44] | 100 | 100 | –
14 | 3.33 | – | Cn1c(C(=O)NC(c2cccc(Cl)c2)C(F)(F)F)cc2cc(C(=O)NC3CC3)c(Cl)cc21 (stereo not shown) [Compound 45] | 100 | 100 | –
15 | 3.31 | – | Cn1c(C(=O)NC(c2cccc(Cl)c2)C(F)(F)F)cc2cc(C(=O)NC3(C#N)CC3)c(Cl)cc21 (stereo not shown) [Compound 46] | 100 | – | efficacy in % [4]: 100%
16 | 3.55 | – | C#CCn1c(C(=O)NC(c2cccc(C(F)(F)F)c2)C(F)(F)F)nc2cc(C(=O)NC3CC3)c(Cl)cc21 (stereo not shown) [Compound 91] | 100 | 100 | –
17 | 3.49 | – | Cc1cc2c(cc1C(=O)NC1(C#N)CC1)cc(C(=O)NC(c1cccc(C(F)(F)F)c1)C(F)(F)F)n2C (stereo not shown) [Compound 196] | 100 | 100 | –
18 | 4.41 | – | CCn1c(C(=O)NC(c2cccc(C(F)(F)F)c2)C(F)(F)F)cc2cc(C(=O)NC(C#N)(CC)CC)c(Cl)cc21 (stereo not shown) [Compound 264] | 100 | – | –
19 | 4.41 | – | CCn1c(C(=O)NC(c2cccc(C(F)(F)F)c2)C(F)(F)F)cc2cc(C(=O)NC3(C)CC3C)c(Cl)cc21 (stereo not shown) [Compound 266] | 100 | – | –

Row | log p [1, 5] | log p [1, 7] | Compound | efficacy in % ([2]; application rate 100 g/ha) [%] | efficacy in % ([3]; application rate 100 g/ha) [%] | further results
20 | 4.30 | – | CCn1c(C(=O)NC(c2cccc(C(F)(F)F)c2)C(F)(F)F)cc2cc(C(=O)NC3(C(F)(F)F)CC3)c(Cl)cc21 (stereo not shown) [Compound 267] | 100 | 100 | –
21 | 3.78 | – | CCn1c(C(=O)NC(c2cccc(C(F)(F)F)c2)C(F)(F)F)cc2cc(C(=O)NC(C)CC#N)c(Cl)cc21 (stereo not shown) [Compound 269] | 100 | – | –
22 | 4.37 | – | CCn1c(C(=O)NC(c2cccc(C(F)(F)F)c2)C(F)(F)F)cc2cc(C(=O)NC(C#N)C(C)C)c(Cl)cc21 (stereo not shown) [Compound 270] | 100 | – | –
23 | – | – | CCn1c(C(=O)NC(c2cccc(C(F)(F)F)c2)C(F)(F)F)c(Cl)c2cc(C(=O)NC3(C#N)CC3)c(Cl)cc21 (stereo not shown) [Compound 271, 3,6-dichloro-N^5-(1-cyanocyclopropyl)-1-ethyl-N^2-{2,2,2-trifluoro-1-[3-(trifluoromethyl)phenyl]ethyl}-1H-indole-2,5-dicarboxamide] | – | – | chromatographic logP [1, 6]: 3.95; chromatographic logP ([1]; HPLC-MS): 3.95; pest or weed control at 100 g/ha ([2]; application rate 100 g/ha): 100%
24 | – | 4.13 | CC(C)Cn1c(C(=O)NC(c2cccc(C(F)(F)F)c2)C(F)(F)F)cc2cc(C(=O)NC3(C#N)CC3)c(Cl)cc21 (stereo not shown) [Compound 299] | 100 | 100 | –
25 | – | 4.03 | CCn1c(C(=O)NC(c2ccc(F)c(C(F)(F)F)c2)C(F)(F)F)cc2cc(C(=O)NC(CF)CF)c(C)cc21 (stereo not shown) [Compound 306] | 100 | 83 | –
26 | – | 3.81 | CCn1c(C(=O)NC(c2ccc3c(c2)OC(F)(F)O3)C(F)(F)F)cc2cc(C(=O)NC3CC3)c(C)cc21 (stereo not shown) [Compound 307] | 100 | 100 | –
27 | – | 4.74 | C=CCN(C(=O)c1cc2nc(C(=O)NC(c3cccc(C(F)(F)F)c3)C(F)(F)F)n(CC=C)c2cc1Cl)C1CC1 (stereo not shown) [Compound 309] | – | – | efficacy in % ([2]; application rate 500 g/ha): 83%; efficacy in % ([3]; application rate 500 g/ha): 100%
28 | – | 4.37 | CCn1c(C(=O)NC(c2cccc(C(F)(F)F)c2)C(F)(F)F)cc2cc(C(=O)NC(C#N)c3ccccc3)c(Cl)cc21 (stereo not shown) [Compound 318] | 100 | – | –
29 | – | 4.08 | CCn1c(C(=O)NC(c2cccc(C(F)(F)F)c2)C(F)(F)F)cc2cc(C(=O)NC3(C#N)CC3)c(C(C)C)cc21 (stereo not shown) [Compound 319] | 100 | 100 | –
30 | – | 2.76 | CCn1c(C(=O)NC(c2ccc(F)c(F)c2)C(F)(F)F)cc2cc(C(=O)NC(C)C[S+](C)[O-])c(C)cc21 (stereo not shown) [Compound 321] | – | – | –
31 | – | – | O=C(NC1CC1)c1cc2nc(C(=O)NC(c3cccc(C(F)(F)F)c3)C(F)(F)F)n(CC3CC3)c2cc1Cl (stereo not shown) [Compound 322] | 100 | 100 | –
32 | – | 3.48 | C=Cn1c(C(=O)NC(c2cccc(C(F)(F)F)c2)C(F)(F)F)cc2cc(C(=O)NC3(C#N)CC3)ccc21 (stereo not shown) [Compound 324] | – | – | –
33 | – | 4.16 | CCn1c(C(=O)NC(c2cccc(C(F)(F)F)c2)C(F)(F)F)cc2cc(C(=O)NC(C#N)(COC)COC)c(Cl)cc21 (stereo not shown) [Compound 325] | 100 | – | –
34 | – | 3.36 | COC(=O)Cn1c(C(=O)NC(c2cccc(C(F)(F)F)c2)C(F)(F)F)cc2cc(C(=O)NC3(C#N)CC3)c(Cl)cc21 (stereo not shown) [Compound 326] | 100 | – | –
35 | – | 4.29 | CCn1c(C(=O)NC(c2cc(Cl)c(F)c(Cl)c2)C(F)(F)F)cc2cc(C(=O)NC3CC3)c(Cl)cc21 (stereo not shown) [Compound 327] | – | – | –
36 | – | 3.52 | CCn1c(C(=O)NC(c2ccc(F)c(F)c2)C(F)(F)F)cc2cc(C(=O)NC3CC3)c(Cl)cc21 (stereo not shown) [Compound 329] | – | – | –
37 | – | 4.02 | CCn1c(C(=O)NC(c2cc(F)cc(C(F)(F)F)c2)C(F)(F)F)cc2cc(C(=O)NC3(C#N)CC3)c(C)cc21 (stereo not shown) [Compound 331] | – | – | –
38 | – | 3.76 | CCn1c(C(=O)NC(c2ccc(F)c(C(F)(F)F)c2)C(F)(F)F)nc2cc(C(=O)NC3CC3)c(Br)cc21 (stereo not shown) [Compound 332] | – | – | –
